According to the supplement of paper PMC11208160:

Test: recombinant barcode read abundance after kanamycin selection (control-corrected) (log10(CPM+1)); higher = more efficient recombination; sequences stand for … in AGTGCAGAGAAAATCGGCCAGTTTTCTCTGCCTGCAGTCCGCATGCCGT…AGATTTATGCAGCGGACTGCCTTTCTCCCAAAGTGATAAACCGGACAGTATCATGGACCGGTTTTCCCGGTAATCCGTATTTGCAAGGTTGGTTTCACT; site = the 11-nt target
Procedure, shortened: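 In E. coli, a pooled library matched targets to IS621 bridge RNA target-binding loops and was introduced alongside a donor plasmid. Cells went onto chloramphenicol/ampicillin/kanamycin with 0.1 mM IPTG or onto chloramphenicol/ampicillin LB agar as control, in duplicate. Recombination efficiency, from recombinant-junction barcodes as counts per million, is averaged and control-corrected. It is reported as log10(CPM+1).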
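Also: IS621 recombinase and bridge RNA in Escherichia coli cells.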

Row | Sequence | recombinant barcode read abundance (log10)
1 | CTGCCCTCTTGGGTTCTAACCTGTTGCCT (site CCGCCCTCTAG) | 0.179
2 | CTGCCCTCTTGGGTTCTAACCTGTTGCCT (site CGGCCCTCTAG) | 0.0113
3 | CTGCCCTCTTGGGTTCTAACCTGTTGCCT (site CTGCCCTCTAG) | 1.74
4 | CTGCGCTCTTGGGTTCTAACCTGTTGCAT (site CTGCGCTCTAT) | 1.22
5 | CTGCGCTCTTGGGTTCTAACCTGTTGCAT (site TGTGAGCCTTC) | 0.0268
6 | CTGCGGTCTTGGGTTCTAACCTGTTGCAT (site ATGCGGTCTAG) | 0.138
7 | CTGCGGTCTTGGGTTCTAACCTGTTGCAT (site CTGCGGTCTAT) | 1.7
8 | CTGCGTACTTGGGTTCTAACCTGTTGCCG (site CTGCGTACTCG) | 0.365
9 | CTGCGTACTTGGGTTCTAACCTGTTGCCG (site TCCAAGGCTTA) | 0.0663
10 | CTGCGTCCTTGGGTTCTAACCTGTTGCCT (site CTCCGTCCTAG) | 0.121
11 | CTGCGTCCTTGGGTTCTAACCTGTTGCCT (site CTGCGTCCTAG) | 0.671
12 | CTGGAAACTTGGGTTCTAACCTGTTGCCT (site CGGGTAACTAG) | 0.0164
13 | CTGGAAACTTGGGTTCTAACCTGTTGCCT (site CTGGAAACTAG) | 1.23
14 | CTGGACACTTGGGTTCTAACCTGTTGCCT (site CTAGACACTAG) | 1.94
15 | CTGGACACTTGGGTTCTAACCTGTTGCCT (site CTCGACACTAG) | 0.0566
16 | CTGGACACTTGGGTTCTAACCTGTTGCCT (site CTGGACACTAG) | 1.83
17 | CTGGACACTTGGGTTCTAACCTGTTGCCT (site CTTGACACTAG) | 0.329
18 | CTGGGCACTTGGGTTCTAACCTGTTGCCT (site CGGGGCACTAG) | 0.164
19 | CTGGGCACTTGGGTTCTAACCTGTTGCCT (site CTGGGCACTAG) | 0.395
20 | CTGGGCCCTTGGGTTCTAACCTGTTGCCT (site CTGAGCCCTAG) | 0.12
21 | CTGGGCCCTTGGGTTCTAACCTGTTGCCT (site CTGCGCCCTAG) | 0.0544
22 | CTGGGCCCTTGGGTTCTAACCTGTTGCCT (site CTGGGCCCTAG) | 0.277
23 | CTGGGCCCTTGGGTTCTAACCTGTTGCCT (site CTGTGCCCTAG) | 0.214
24 | CTGGGTCCTTGGGTTCTAACCTGTTGCTT (site CTGGGTCCTAA) | 1.48
25 | CTGGGTCCTTGGGTTCTAACCTGTTGCTT (site CTTGGTTCTAA) | 0.179
26 | CTGGTTCCTTGGGTTCTAACCTGTTGCCT (site CTGGCTCCTAA) | 0.874

Row | Sequence | recombinant barcode read abundance (log10)
27 | CTGGTTCCTTGGGTTCTAACCTGTTGCCT (site CTGGTTCCTAG) | 1.2
28 | CTGTTGTCTTGGGTTCTAACCTGTTGCCA (site CTGATGTCTTG) | 0.204
29 | CTGTTGTCTTGGGTTCTAACCTGTTGCCA (site CTGCTGTCTTG) | 0.00714
30 | CTGTTGTCTTGGGTTCTAACCTGTTGCCA (site CTGGTGTCTTG) | 0.0643
31 | CTGTTGTCTTGGGTTCTAACCTGTTGCCA (site CTGTTGTCTTG) | 0.487
32 | CTTACAGCTTGGGTTCTAACCTGTTGCCT (site CTTACAGCTAG) | 0.644
33 | CTTACAGCTTGGGTTCTAACCTGTTGCCT (site CTTACCGCTAG) | 0.138
34 | CTTACAGCTTGGGTTCTAACCTGTTGCCT (site CTTACGGCTAG) | 0.0141
35 | CTTACAGCTTGGGTTCTAACCTGTTGCCT (site CTTACTGCTAG) | 0.147
36 | CTTAGGACTTGGGTTCTAACCTGTTGCCA (site CTTAGGACTAG) | 0.257
37 | CTTAGGACTTGGGTTCTAACCTGTTGCCA (site CTTAGGACTCG) | 0.0285
38 | CTTAGGACTTGGGTTCTAACCTGTTGCCA (site CTTAGGACTGG) | 0.0906
39 | CTTAGGACTTGGGTTCTAACCTGTTGCCA (site CTTAGGACTTG) | 0.265
40 | CTTAGGACTTGGGTTCTAACCTGTTGCCG (site CTTAGGACTAG) | 0.235
41 | CTTAGGACTTGGGTTCTAACCTGTTGCCG (site CTTAGGACTCG) | 0.577
42 | CTTAGGACTTGGGTTCTAACCTGTTGCCG (site CTTAGGACTGG) | 0.155
43 | CTTAGGACTTGGGTTCTAACCTGTTGCCG (site CTTAGGACTTG) | 0.199
44 | CTTAGTACTTGGGTTCTAACCTGTTGCAT (site CTTAGTACTAT) | 0.246
45 | CTTAGTACTTGGGTTCTAACCTGTTGCAT (site GACGTGCCTCG) | 0.432
46 | CTTCAATCTTGGGTTCTAACCTGTTGCCT (site CTTAAATCTAG) | 0.146
47 | CTTCAATCTTGGGTTCTAACCTGTTGCCT (site CTTCAATCTAG) | 0.267
48 | CTTCAATCTTGGGTTCTAACCTGTTGCCT (site CTTGAATCTAG) | 0.35
49 | CTTCAATCTTGGGTTCTAACCTGTTGCCT (site CTTTAATCTAG) | 0.0762
50 | CTTCACCCTTGGGTTCTAACCTGTTGCCT (site CTTCAACCTAG) | 0.134
51 | CTTCACCCTTGGGTTCTAACCTGTTGCCT (site CTTCACCCTAG) | 1.76
52 | CTTCACCCTTGGGTTCTAACCTGTTGCCT (site CTTCAGCCTAG) | 0.117

Row | Sequence | recombinant barcode read abundance (log10)
53 | CTTCACCCTTGGGTTCTAACCTGTTGCCT (site CTTCATCCTAG) | 0.00728
54 | CTTCGAGCTTGGGTTCTAACCTGTTGCTG (site CTTCGAGCTCA) | 1.52
55 | CTTCGAGCTTGGGTTCTAACCTGTTGCTG (site CTTCGAGCTCC) | 0.193
56 | CTTCGAGCTTGGGTTCTAACCTGTTGCTG (site CTTCGAGCTCG) | 0.184
57 | CTTCGAGCTTGGGTTCTAACCTGTTGCTG (site CTTCGAGCTCT) | 0.294
58 | CTTCGCACTTGGGTTCTAACCTGTTGCCT (site CATCGCACTAG) | 0.0381
59 | CTTCGCACTTGGGTTCTAACCTGTTGCCT (site CCTCGCACTAG) | 0.0814
60 | CTTCGCACTTGGGTTCTAACCTGTTGCCT (site CGTCGCACTAG) | 0.0111
61 | CTTCGCACTTGGGTTCTAACCTGTTGCCT (site CTTCGCACTAG) | 0.0708
62 | CTTCGGGCTTGGGTTCTAACCTGTTGCAT (site CTTCGGGCTAT) | 1.26
63 | CTTCGGGCTTGGGTTCTAACCTGTTGCAT (site CTTTGAGCTAT) | 0.242
64 | CTTGCATCTTGGGTTCTAACCTGTTGCCT (site CTTGCATCTAG) | 0.383
65 | CTTGCATCTTGGGTTCTAACCTGTTGCCT (site GGGCACACTGT) | 0.293
66 | CTTGGAACTTGGGTTCTAACCTGTTGCCT (site CTTGGAACTAG) | 0.224
67 | CTTGGAACTTGGGTTCTAACCTGTTGCCT (site CTTGGACCTAG) | 0.242
68 | CTTGGAACTTGGGTTCTAACCTGTTGCCT (site CTTGGAGCTAG) | 0
69 | CTTGGAACTTGGGTTCTAACCTGTTGCCT (site CTTGGATCTAG) | 0.228
70 | CTTGGATCTTGGGTTCTAACCTGTTGCCT (site CTTGGAACTAG) | 0.142
71 | CTTGGATCTTGGGTTCTAACCTGTTGCCT (site CTTGGACCTAG) | 0.116
72 | CTTGGATCTTGGGTTCTAACCTGTTGCCT (site CTTGGAGCTAG) | 0.0716
73 | CTTGGATCTTGGGTTCTAACCTGTTGCCT (site CTTGGATCTAG) | 0.913
74 | CTTGGGCCTTGGGTTCTAACCTGTTGCCT (site CATGGGCCTAG) | 0.0436
75 | CTTGGGCCTTGGGTTCTAACCTGTTGCCT (site CCTGGGCCTAG) | 0.16
76 | CTTGGGCCTTGGGTTCTAACCTGTTGCCT (site CGTGGGCCTAG) | 0.186
77 | CTTGGGCCTTGGGTTCTAACCTGTTGCCT (site CTTGGGCCTAG) | 0.417
